These are literature values, as cited in patent publication US10583082B2, “Composition comprising at least two dry powders obtained by spray drying to increase the stability of the formulation” (Eratech S.R.L., priority 2013, dated 2020).

For this data set the following is noted: from US 2001/0036481 A1.
Turning to `CCCCCCCCCCCCCCCC(=O)OCC(COP(=O)(O)OCCN)OC(=O)CCCCCCCCCCCCCCC` (stereo not drawn) [DPPE, dipalmitoylphosphatidylethanolamine], the “phospholipid transition temperature (Tg) with humidity” value (from here on “phospholipid transition temperature”) was 63 °C. With `CCCCCCCCCCCCCCCC(=O)OC[C@H](COP(=O)([O-])OCC[N+](C)(C)C)OC(=O)CCCCCCCCCCCCCCC` [DPPC, dipalmitoylphosphatidylcholine], the “phospholipid transition temperature” value is 41 °C. On to `CCCCCCCCCCCCCCCCCC(=O)OC[C@H](COP(=O)([O-])OCC[N+](C)(C)C)OC(=O)CCCCCCCCCCCCCCCCC` [DSPC, distearoylphosphatidylcholine], for which the “phospholipid transition temperature” value is 55 °C.
